Earlier results, collected in US20240082270A1 (priority 2021, published 2024).

Tested on: live SARS-CoV-2

| Structure (SMILES) | effectiveness against variants |
| --- | --- |
| C=C(C)[C@@H]1CCC(C)=C[C@H]1c1c(O)cc(CCCCC)c(C(=O)O)c1O [CBDA] | equally effective |
| CCCCCc1cc(O)c(C/C=C(\C)CCC=C(C)C)c(O)c1C(=O)O [CBGA, cannabigerolic acid] | equally effective |
